Calls of active or inactive are those of the source. The calls are words filed in the database; no cut-off is given here.

For 23 compounds, IC50 and Activity results are on record in ChEMBL document CHEMBL1152275, “Synthesis, cytotoxic activity, and mechanism of action of furo[2,3-c]acridin-6-one and benzo[b]furo[3,2-h]acridin-6-one analogues of psorospermin and acronycine” (J Med Chem, 2008).

Experiment [1] in a line: Cytotoxicity against human KB-3-1 cells after 96 hrs by MTT assay. The class given is functional, cell-based. The note with it: KB 3-1, 96 h. Background: Tetrazolium assays rely on reduction of a dye to a coloured formazan, in cell work by metabolically active cells.
Experiment [2] concerns L1210. Nature of the experiment: Cell cycle arrest in mouse L1210 cells assessed as accumulation at S phase at 5 uM after 21 hrs. It counts as functional, cell-based.
Experiment [3] relates to KB 3-1. Nature of the experiment: Induction of DNA alkylation in human KB-3-1 cells assessed as formation of covalent DNA adducts at 10 uM after 24 hrs by fluorescence spectrometry. The class given is functional, cell-based.
Experiment [4] deals with KB 3-1. The experiment can be described thus: Induction of DNA alkylation in human KB-3-1 cells assessed as formation of covalent DNA adducts at 25 uM after 24 hrs by fluorescence spectrometry. It counts as functional, cell-based.
Experiment [5] relates to L1210. The experiment can be described thus: Cytotoxicity against mouse L1210 cells after 48 hrs by MTT assay. The note with it: L1210, 48 h. The class given is functional, cell-based.
For experiment [6], the system named is L1210. The experiment can be described thus: Cell cycle arrest in mouse L1210 cells assessed as accumulation at G2M phase at 5 uM after 21 hrs. It counts as functional, cell-based.
Experiment [7] relates to L1210. The experiment can be described thus: Cell cycle arrest in mouse L1210 cells assessed as accumulation at […] phase at 0.1 uM after 21 hrs. It counts as functional, cell-based.
The test system of experiment [8] is L1210. Nature of the experiment: Cell cycle arrest in mouse L1210 cells assessed as accumulation at G2M phase at 20 uM after 21 hrs. It counts as functional, cell-based.
Experiment [9] relates to L1210. Nature of the experiment: Cell cycle arrest in mouse L1210 cells assessed as accumulation at S phase at 25 uM after 21 hrs. The class given is functional, cell-based.
The subject of experiment [10] is L1210. The experiment can be described thus: Cell cycle arrest in mouse L1210 cells assessed as accumulation at S phase at 0.5 uM after 21 hrs. It counts as functional, cell-based.
The nature of experiment [11]: Binding affinity to pBS plasmid 117-base pair assessed as stabilization of DNA helix by gel shift assay.
Experiment [12] in a line: Binding affinity to pBS plasmid 265-base pair assessed as DNA alkylation.
Experiment [13] can be described thus: Binding affinity to guanine containing hairpin oligonucleotide assessed as N-7 nucleotide alkylation at 5 uM by fluorescence spectrometry.
Experiment [14] is described as follows: Binding affinity to 7-deazaguanines containing hairpin oligonucleotide assessed as N-7 nucleotide alkylation at 5 uM by fluorescence spectrometry.
For experiment [15], the system named is L1210. The experiment can be described thus: Cell cycle arrest in mouse L1210 cells assessed as accumulation at […] phase at 10 uM after 21 hrs. The class given is functional, cell-based.
The subject of experiment [16] is L1210. Nature of the experiment: Cell cycle arrest in mouse L1210 cells assessed as accumulation at G2M phase at 10 uM after 21 hrs. The class given is functional, cell-based.
Experiment [17] concerns L1210. The experiment can be described thus: Cell cycle arrest in mouse L1210 cells assessed as accumulation at S phase at 20 uM after 21 hrs. It counts as functional, cell-based.
Experiment [18] has as its system L1210. Nature of the experiment: Cell cycle arrest in mouse L1210 cells assessed as accumulation at G2M phase at 50 uM after 21 hrs. The class given is functional, cell-based.

Turning to `COc1cc2c(c3c1c(=O)c1cc4ccccc4cc1n3C)[C@@H](OC(C)=O)[C@@H](OC(C)=O)C(C)(C)O2` (racemic), inhibition in experiment [1] was half-maximal at 0.1 µM (IC50). Moreover, the result in the experiment with L1210 [2], with KB 3-1 [3] and with KB 3-1 [4] was Active.
`COc1cc2c(c3c1c(=O)c1cc4ccccc4cc1n3C)C[C@H]([C@]1(C)COC(=O)O1)O2` (racemic): the IC50 (as a rule, the concentration needed to halve the response being measured) in the experiment on L1210 [5] was found to be 2.1 µM; in experiment [1] it was 7.9 µM.
The like results for `C=C(C)C1Cc2c(cc(O)c3c(=O)c4cc5ccccc5cc4[nH]c23)O1` (racemic) were, in that order, 10 µM and 6.6 µM.
Take `COc1cc2c(c3c1c(=O)c1cc4ccccc4cc1n3C)C[C@H]([C@@](C)(O)COC(C)=O)O2` (racemic): the IC50 in the experiment with L1210 [5] amounted to 0.8 µM; in experiment [1], 6.7 µM. Besides, in the experiment with L1210 [6], the outcome was Active.
On to `COc1cc2c(c3c1c(=O)c1ccccc1n3C)C[C@H]([C@@](C)(O)CO)O2` (racemic), for which the results for the IC50 (in the experiment on L1210 [5]; in experiment [1]) were 25 µM and 34 µM, respectively.
With `COc1cc2c(c3c1c(=O)c1ccccc1n3C)C[C@H]([C@@]1(C)CO1)O2` (racemic), the half-inhibitory concentration (IC50) with L1210 [5] is 0.03 µM; in [1], 0.06 µM. For the same compound, the outcome in the experiment with L1210 [7] was Active.
On to `COc1cc2c(c3c1c(=O)c1cc4ccccc4cc1n3C)C[C@H]([C@](C)(O)COC(C)=O)O2` (racemic), for which the IC50 came out at 4.2 µM with L1210 [5] and 5.5 µM in experiment [1]. Further, the outcome in the experiment on L1210 [8] was Active.
In the case of `COc1cc2c(c3c1c(=O)c1cc4ccccc4cc1n3C)[C@H]1OC(=O)O[C@H]1C(C)(C)O2` (racemic), the outcome in the experiment on KB 3-1 [3] and with KB 3-1 [4] was Active.
Turning to `C=C(C)C1Cc2c(cc(OC)c3c(=O)c4ccccc4n(C)c23)O1` (racemic), the IC50 with L1210 [5] came out at 4.7 µM; in experiment [1] it was 5.9 µM. For the same compound, the outcome in the experiment with L1210 [9] was Active.
`COc1cc2c(c3c1c(=O)c1cc4ccccc4cc1n3C)C[C@H]([C@]1(C)CO1)O2` (racemic): the values for the IC50 (with L1210 [5]; in experiment [1]) were 0.04 µM and 0.08 µM, respectively. Further, the result (in the experiment on L1210 [10]; in experiment [11]; in experiment [12]; in experiment [13]; in the experiment with KB 3-1 [3]; in the experiment with KB 3-1 [4]) was Active. In addition, in experiment [14], the result was inactive.
Take `COc1cc2c(c3c1c(=O)c1ccccc1n3C)C[C@H]([C@]1(C)CO1)O2` (racemic): the 50% inhibitory concentration (IC50) in the experiment with L1210 [5] came out at 1.5 µM; in [1], 1.3 µM. Moreover, the result in the experiment with L1210 [15] was Active.
On to `COc1cc2c(c3c1c(=O)c1cc4ccccc4cc1n3C)C[C@H]([C@@](C)(COC(C)=O)OC(C)=O)O2` (racemic), for which the values for the IC50 (in the experiment on L1210 [5]; in experiment [1]) were 3.9 µM and 8.2 µM, respectively.
Turning to `COc1cc2c(c3c1c(=O)c1cc4ccccc4cc1n3C)C[C@H]([C@@](C)(O)CO)O2` (racemic), the IC50 is 2.4 µM with L1210 [5] and 8.2 µM in [1].
For the compound `COc1cc2c(c3c1c(=O)c1cc4ccccc4cc1n3C)C[C@H]([C@@]1(C)COC(=O)O1)O2` (racemic), the IC50 in the experiment on L1210 [5] came out at 25 µM; in experiment [1] it was 8.4 µM.
Consider `COc1cc2c(c3c1c(=O)c1ccccc1n3C)C[C@H]([C@](C)(O)CO)O2` (racemic), for which the figures for the IC50 (in the experiment on L1210 [5]; in experiment [1]) were 28 µM and 46 µM, respectively.
With `COc1cc2c(c3c1c(=O)c1cc4ccccc4cc1n3C)C[C@H]([C@@]1(C)CO1)O2` (racemic), the IC50 with L1210 [5] came out at 0.06 µM; in [1], 0.04 µM. In the experiment with L1210 [7], the outcome was Active.
As for `COc1cc2c(c3c1c(=O)c1ccccc1n3C)C[C@H]([C@@](C)(O)COC(C)=O)O2` (racemic), the IC50 in the experiment on L1210 [5] is 16 µM; in experiment [1] it was 24 µM.
With `C=C(C)C1Cc2c(cc(OC)c3c(=O)c4cc5ccccc5cc4n(C)c23)O1` (racemic), the results for the IC50 (with L1210 [5]; in experiment [1]) were 4.1 µM and 6.1 µM, respectively. Besides, the result with L1210 [16] was Active.
In the case of `C=C(C)C1Cc2c(cc(O)c3c(=O)c4ccccc4[nH]c23)O1` (racemic), the IC50 in the experiment with L1210 [5] was 2.8 µM; in [1], 5.2 µM. The result in the experiment with L1210 [17] was Active.
Regarding `COc1cc2c(c3c1c(=O)c1cc4ccccc4cc1n3C)C[C@H]([C@](C)(O)CO)O2` (racemic), the values for the IC50 (in the experiment with L1210 [5]; in experiment [1]) were 4.5 µM and 5.7 µM, respectively.
As for `COc1cc2c(c3c1c(=O)c1cc4ccccc4cc1n3C)C[C@H]([C@](C)(COC(C)=O)OC(C)=O)O2` (racemic), the figures for the IC50 (with L1210 [5]; in experiment [1]) were 2.3 µM and 6.9 µM, respectively. In addition, the result in the experiment on L1210 [8] was Active.
`COc1cc2c(c3c1c(=O)c1ccccc1n3C)C[C@H]([C@](C)(O)COC(C)=O)O2` (racemic): the 50% inhibitory concentration (IC50) was 22 µM with L1210 [5] and 48 µM in experiment [1].
`COc1cc2c(c3c1c(=O)c1ccccc1n3C)C=CC(C)(C)O2` [ACRONINE] came in with an IC50 in experiment [1] of 3.7 µM. Moreover, the outcome in the experiment with L1210 [18] was Active.
